Experimental data from the CATMoS acute toxicity set (Mansouri et al. 2021).

Test: GHS categories as the set defines them, by LD50: 1 up to 5, 2 up to 50, 3 up to 300, 4 up to 2000, 5 above 2000 mg/kg
Details: rat; in vivo; po
`O=C1CC(N2C(=O)c3ccccc3C2=O)CC(=O)N1CN1CCOCC1` gave a GHS category of 5. With `C[Si]1(C)O[Si](C)(C)O[Si](C)(C)O[Si](C)(C)O[Si](C)(C)O[Si](C)(C)O1` the GHS category was 5. `Cc1cnc(C2=NC(=O)C(C)(C(C)C)N2)c(C(=O)O)c1` (centres undefined) gave a GHS category of 5. Compound `CCOC(=O)C(=O)Nc1cc(OC)nc(OC)n1` has a GHS category of 4. Work on `CC(C)=CCC(C#N)(CCN1CCOCC1)c1cccc2ccccc12` (centres undefined) yielded a GHS category of 4. In the case of `CCOC(=O)CCN(C(=O)c1ccc2c(c1)nc(CCl)n2C)c1ccccn1`, the GHS category is reported as 4. For `Clc1ccc2oc(C3(Cn4ccnc4)OCCO3)cc2c1`, the GHS category was 4. `CC[N+](CC)(CC)C(C)OS(=O)(=O)C(F)(F)C(F)(F)C(F)(F)C(F)(F)F` (centres undefined) showed a GHS category of 5. Work on `CCN(CCCSc1nnnn1C)C(=O)C1CCCC1` yielded a GHS category of 4. For `COc1ccc(-c2cc(=O)c3c(OCCO)cc(O[C@@H]4O[C@H](CO[C@@H]5O[C@@H](C)[C@H](O)[C@@H](O)[C@H]5O)[C@@H](O)[C@H](O)[C@H]4O)cc3o2)cc1O`, the GHS category was 5. `CCOP(OCC)c1ccccc1` gave a GHS category of 5. `CC(=O)n1c(=O)oc2ccc(Cl)cc21` gave a GHS category of 5. Work on `CCC(C)(Oc1ccc(C2(c3ccc(OC(C)(CC)C(=O)O)cc3)CCCCC2)cc1)C(=O)O` (centres undefined) yielded a GHS category of 5. For `C[C@H]1O[C@]2(CS1)CN1CCC2CC1`, the GHS category was 3. `Nc1nc(=O)[nH]cc1F` showed a GHS category of 5. Work on `COc1ccccc1OCCNCC(O)c1ccc(C)c(S(N)(=O)=O)c1` (centres undefined) yielded a GHS category of 5. Work on `COc1ccccc1N=NC(C(C)=O)C(=O)Nc1ccc2[nH]c(=O)[nH]c2c1` (centres undefined) yielded a GHS category of 5. In the case of `Cc1cccc(OC(=O)c2ccc(Cl)cc2OC(N)=O)c1`, the GHS category is reported as 5. With `CCOC(=O)C(=O)Nc1cccc(OC)c1C(N)=O` the GHS category was 5. With `C=CCOc1c(Br)cc(C(C)(C)c2cc(Br)c(OCC=C)c(Br)c2)cc1Br` the GHS category was 5. In the case of `O=C(O)CCCC/C=C(\c1ccccc1)c1cccnc1`, the GHS category is reported as 5. `CC(C)OC[C@H]1CO[C@@](Cn2cncn2)(c2cc3cc(Cl)cc(Cl)c3o2)O1` showed a GHS category of 4. `NC[C@H]1O[C@H](O[C@H]2[C@H](O[C@@H]3O[C@H](CO)[C@@H](O)[C@H]3O)C(O)[C@H](N)C[C@@H]2N)[C@H](N)[C@@H](O)[C@@H]1O` (some centres undefined) showed a GHS category of 5. `O=C(O)COc1nn(-c2cccc(C(F)(F)F)c2)c2ncccc12` gave a GHS category of 4. `CC(C)(C)CC(C)(C)c1ccc(O)c(-n2nc3ccccc3n2)c1` gave a GHS category of 5. `COc1ccc(C(=O)Nc2ccccc2)cc1N` showed a GHS category of 5. `COc1c(Cl)ccc(B(O)O)c1F` gave a GHS category of 5. For `CCOC(=O)c1c(N)sc2c1CCN(Cc1ccccc1)C2`, the GHS category was 5. For `CS(=O)(=O)c1ccc(C(=O)C2C(=O)CCCC2=O)c([N+](=O)[O-])c1`, the GHS category was 5. `Oc1cc(O)ncn1` showed a GHS category of 5. For `CC=COC`, the GHS category was 5. Work on `c1ccc2sc(SN3CCOCC3)nc2c1` yielded a GHS category of 5. In the case of `CC(C)=CCOC1=C(C(=O)Nc2ccccn2)N(C)S(=O)(=O)c2cc(Cl)sc21`, the GHS category is reported as 2. For `C=CCN1CCC23c4c5ccc(O)c4OC2C(=O)CCC3(O)C1C5` (centres undefined), the GHS category was 4. Work on `CCCCCCCCCCCCCC(=O)N[C@@H](CCC(=O)O)C(=O)O` yielded a GHS category of 5. `Clc1ccc(CSc2ccc(Cl)cc2)cc1` showed a GHS category of 5. `CCCCCCCCCCCCCCOc1ccc(C(=O)O)o1` showed a GHS category of 5. `COc1ccc(C=Nc2ccccc2C(=O)O)cc1` showed a GHS category of 4. In the case of `CCCCCCC(=O)OCC(CC)(COC(=O)CCCCCC)COC(=O)CCCCCC`, the GHS category is reported as 5. In the case of `OCCOc1ccc(OCCO)cc1`, the GHS category is reported as 5. With `CC(=O)OCCCCCCCCCOC(C)=O` the GHS category was 5. `N#CC(C(=O)OCC(COC(=O)C(C#N)=C(c1ccccc1)c1ccccc1)(COC(=O)C(C#N)=C(c1ccccc1)c1ccccc1)COC(=O)C(C#N)=C(c1ccccc1)c1ccccc1)=C(c1ccccc1)c1ccccc1` showed a GHS category of 5. For `CCOCCN(Cc1ccc(Oc2ccc([N+](=O)[O-])cc2)cc1)C(=O)C(Cl)Cl`, the GHS category was 5. With `CCCCCCCCCCCCCC(=O)OCCCC` the GHS category was 5. `O=C(Nc1ccc(Cl)cc1)c1cc2ccccc2cc1O` gave a GHS category of 5. Work on `NC(=O)NC1CCC(=O)c2sccc21` (centres undefined) yielded a GHS category of 5. `NC[C@H]1O[C@H](O[C@H]2[C@H](O)[C@@H](O[C@H]3O[C@H](CO)[C@@H](O)[C@H](N)[C@H]3O)[C@H](N)C[C@@H]2N)[C@H](N)[C@@H](O)[C@@H]1O` showed a GHS category of 5. Compound `CN(C(=O)COc1nc2ccccc2s1)c1ccccc1` has a GHS category of 5. Compound `Cc1cc(C)c(S(=O)(=O)O)cc1N=Nc1cc(S(=O)(=O)O)c2ccccc2c1O` has a GHS category of 5. With `CO/N=C(\C(=O)N[C@@H]1C(=O)N2C(C(=O)OCOC(=O)C(C)(C)C)=C(/C=C\c3scnc3C)CS[C@H]12)c1csc(N)n1` the GHS category was 5. Work on `O=c1oc2ccc(Cl)cc2n1CO` yielded a GHS category of 4. With `CCOc1nc(NC)nc(NC(=O)NS(=O)(=O)c2ccccc2C(=O)OC)n1` the GHS category was 5. In the case of `CC(C)CCC1CCC(O)CC1` (centres undefined), the GHS category is reported as 5. `CCC(=O)OCC(=O)[C@@]1(OC(=O)CC)[C@@H](C)C[C@H]2[C@@H]3CCC4=CC(=O)C=C[C@]4(C)[C@@]3(Cl)[C@@H](O)C[C@@]21C` showed a GHS category of 5. Compound `O=C(Nc1ccc(Cc2ccc(NC(=O)NC3CCCCC3)cc2)cc1)NC1CCCCC1` has a GHS category of 5. In the case of `C=C(C)C(=O)OCCOC(=O)Oc1ccc(C(C)(C)c2ccc(OC(=O)OCCOC(=O)C(=C)C)cc2)cc1`, the GHS category is reported as 5. `CC(=O)C=CC=C(C)CCC=C(C)C` gave a GHS category of 5. Compound `COC(OC)C(C)Cc1ccc(C(C)C)cc1` (centres undefined) has a GHS category of 5. With `C/C=C\[C@@H]1[C@@H](C(=O)OCc2c(F)c(F)c(COC)c(F)c2F)C1(C)C` the GHS category was 5.
